Read-outs that look alike come from different tables or passages of the source.
Legend:
[1] = test system: HCT116 (human colorectal carcinoma) cells; assay: Cell growth inhibition assay, HCT116; assay type: cell-based; conditions: for fold more potent than vinblastine, HCT116: relative to vinblastine
Procedure: (§1) A population of cells (>1×10^6 cells/mL as determined with a hemocytometer) was diluted with an appropriate amount of Dulbecco-modified Eagle Medium (DMEM, Gibco) containing 10% fetal bovine serum (FBS, Gibco) to a final concentration of 30,000 cells/mL.
(§2) To each well of a 96-well plate (Corning Costar), 100 μL of the cell-media solution was added with a multichannel pipette. The cultures were incubated at 37° C. in an atmosphere of 5% CO2 and 95% humidified air for 24 hours. The test compounds were added to the plate as follows: test substances were diluted in DMSO to a concentration of 1 mM and 10-fold serial dilutions were performed on a separate 96-well plate. Fresh culture medium (100 μL) was added to each well of cells to constitute 200 μL of medium per well followed by 2 μL of each test agent. Compounds were tested in duplicate (n=2-8 times) at six concentrations between 0-1,000 nM or 0-10,000 nM. Following addition, cultures were incubated for an additional 72 hours.
(§3) The plates were incubated at 37° C. for either 5 minutes (L1210) or 15 minutes (HCT116 and HCT116/VM46).

[2] = test system: L1210 (mouse lymphocytic leukemia) cells; assay: Cell growth inhibition assay, L1210; assay type: cell-based; conditions: L1210 murine leukemia cell line; avg of 4-16 determinations
Procedure: as §1, §2, §3

[3] = test system: HCT116/VM46 (vinblastine-resistant strain of HCT116, Pgp over-expression) cells; assay: Cell growth inhibition assay, HCT116/VM46; conditions: for IC50: read-out: IC50 (nM) HCT116/VM46, resistant human colon cancer cell line, Pgp over-expression; for fold improvement over vinblastine, HCT116/VM46: relative to vinblastine
Procedure: as §1, §2, §3

[4] = HCT116 human colon cancer cell line, avg of 4-16 determinations, read-out: IC50 (nM) HCT116
[5] = text values in pM, read-out: IC50 HCT116

SMILES: CC[C@]1(NC(=O)Oc2ccc([N+](=O)[O-])cc2)C[C@@H]2CN(CCc3c([nH]c4ccccc34)[C@@](C(=O)OC)(c3cc4c(cc3OC)N(C)[C@H]3[C@@](O)(C(=O)OC)[C@H](OC(C)=O)[C@]5(CC)C=CCN6CC[C@]43[C@@H]65)C2)C1 [Compound 13]
- IC50 [1, 4]: 55 nM

SMILES: CCC1(NC(=O)NC)CC2CN(CCc3c([nH]c4ccccc34)C(C(=O)OC)(c3cc4c(cc3OC)N(C)C3C(O)(C(=O)OC)C(OC(C)=O)C5(CC)C=CCN6CCC43C65)C2)C1 (stereo not drawn) [Compound 14]
- IC50 [1, 4]: 0.82 nM
- IC50 [2]: 5.7 nM
- IC50 [3]: 530 nM

SMILES: CCNC(=O)N[C@@]1(CC)C[C@@H]2CN(CCc3c([nH]c4ccccc34)[C@@](C(=O)OC)(c3cc4c(cc3OC)N(C)[C@H]3[C@@](O)(C(=O)OC)[C@H](OC(C)=O)[C@]5(CC)C=CCN6CC[C@]43[C@@H]65)C2)C1 [Compound 15]
- IC50 [1, 4]: 0.73 nM
- IC50 [2]: 2.1 nM
- IC50 [3]: 90 nM
- fold improvement over vinblastine, HCT116/VM46 [3]: 10 fold

SMILES: CCCNC(=O)N[C@@]1(CC)C[C@@H]2CN(CCc3c([nH]c4ccccc34)[C@@](C(=O)OC)(c3cc4c(cc3OC)N(C)[C@H]3[C@@](O)(C(=O)OC)[C@H](OC(C)=O)[C@]5(CC)C=CCN6CC[C@]43[C@@H]65)C2)C1 [Compound 16]
- IC50 [1, 4]: 2.7 nM
- IC50 [2]: 6 nM
- IC50 [3]: 221 nM

SMILES: CC[C@]1(NC(=O)NC(C)C)C[C@@H]2CN(CCc3c([nH]c4ccccc34)[C@@](C(=O)OC)(c3cc4c(cc3OC)N(C)[C@H]3[C@@](O)(C(=O)OC)[C@H](OC(C)=O)[C@]5(CC)C=CCN6CC[C@]43[C@@H]65)C2)C1 [Compound 17]
- IC50 [1, 4]: 5.7 nM
- IC50 [2]: 5.5 nM
- IC50 [3]: 430 nM

SMILES: CC[C@]1(NC(=O)NC2CC2)C[C@@H]2CN(CCc3c([nH]c4ccccc34)[C@@](C(=O)OC)(c3cc4c(cc3OC)N(C)[C@H]3[C@@](O)(C(=O)OC)[C@H](OC(C)=O)[C@]5(CC)C=CCN6CC[C@]43[C@@H]65)C2)C1 [Compound 18]
- IC50 [1, 4]: 0.73 nM
- IC50 [2]: 3.9 nM
- IC50 [3]: 85 nM
- fold improvement over vinblastine, HCT116/VM46 [3]: 10 fold

SMILES: CCCCNC(=O)N[C@@]1(CC)C[C@@H]2CN(CCc3c([nH]c4ccccc34)[C@@](C(=O)OC)(c3cc4c(cc3OC)N(C)[C@H]3[C@@](O)(C(=O)OC)[C@H](OC(C)=O)[C@]5(CC)C=CCN6CC[C@]43[C@@H]65)C2)C1 [Compound 19]
- IC50 [1, 4]: 4.6 nM
- IC50 [2]: 5.7 nM
- IC50 [3]: 270 nM

SMILES: CC[C@]1(NC(=O)NC(C)(C)C)C[C@@H]2CN(CCc3c([nH]c4ccccc34)[C@@](C(=O)OC)(c3cc4c(cc3OC)N(C)[C@H]3[C@@](O)(C(=O)OC)[C@H](OC(C)=O)[C@]5(CC)C=CCN6CC[C@]43[C@@H]65)C2)C1 [Compound 20]
- IC50 [1, 4]: 20 nM
- IC50 [2]: 40 nM
- IC50 [3]: 670 nM

SMILES: CC[C@]1(NC(=O)NC2CCCCC2)C[C@@H]2CN(CCc3c([nH]c4ccccc34)[C@@](C(=O)OC)(c3cc4c(cc3OC)N(C)[C@H]3[C@@](O)(C(=O)OC)[C@H](OC(C)=O)[C@]5(CC)C=CCN6CC[C@]43[C@@H]65)C2)C1 [Compound 21]
- IC50 [1, 4]: 5.4 nM
- IC50 [2]: 5.8 nM
- IC50 [3]: 450 nM

SMILES: CC[C@]1(NC(=O)NCCO)C[C@@H]2CN(CCc3c([nH]c4ccccc34)[C@@](C(=O)OC)(c3cc4c(cc3OC)N(C)[C@H]3[C@@](O)(C(=O)OC)[C@H](OC(C)=O)[C@]5(CC)C=CCN6CC[C@]43[C@@H]65)C2)C1 [Compound 22]
- IC50 [1, 4]: 8.8 nM
- IC50 [2]: 48 nM
- IC50 [3]: > 1000 nM

SMILES: CC[C@]1(NC(=O)Nc2ccccc2)C[C@@H]2CN(CCc3c([nH]c4ccccc34)[C@@](C(=O)OC)(c3cc4c(cc3OC)N(C)[C@H]3[C@@](O)(C(=O)OC)[C@H](OC(C)=O)[C@]5(CC)C=CCN6CC[C@]43[C@@H]65)C2)C1 [Compound 23]
- IC50 [1, 4]: 5.1 nM
- IC50 [2]: 6.5 nM
- IC50 [3]: 390 nM

SMILES: CC[C@]1(NC(=O)Nc2ccc(F)cc2)C[C@@H]2CN(CCc3c([nH]c4ccccc34)[C@@](C(=O)OC)(c3cc4c(cc3OC)N(C)[C@H]3[C@@](O)(C(=O)OC)[C@H](OC(C)=O)[C@]5(CC)C=CCN6CC[C@]43[C@@H]65)C2)C1 [Compound 24]
- IC50 [1, 4]: 3.9 nM
- IC50 [2]: 5.7 nM
- IC50 [3]: 400 nM

SMILES: CC[C@]1(NC(=O)Nc2ccc(Cl)cc2)C[C@@H]2CN(CCc3c([nH]c4ccccc34)[C@@](C(=O)OC)(c3cc4c(cc3OC)N(C)[C@H]3[C@@](O)(C(=O)OC)[C@H](OC(C)=O)[C@]5(CC)C=CCN6CC[C@]43[C@@H]65)C2)C1 [Compound 25]
- IC50 [1, 4]: 6.7 nM
- IC50 [2]: 6.2 nM
- IC50 [3]: 590 nM

SMILES: CC[C@]1(NC(=O)Nc2ccc(C)cc2)C[C@@H]2CN(CCc3c([nH]c4ccccc34)[C@@](C(=O)OC)(c3cc4c(cc3OC)N(C)[C@H]3[C@@](O)(C(=O)OC)[C@H](OC(C)=O)[C@]5(CC)C=CCN6CC[C@]43[C@@H]65)C2)C1 [Compound 26]
- IC50 [1, 4]: 4.8 nM
- IC50 [2]: 4.5 nM
- IC50 [3]: 330 nM

SMILES: CC[C@]1(NC(=O)Nc2ccc(C(F)(F)F)cc2)C[C@@H]2CN(CCc3c([nH]c4ccccc34)[C@@](C(=O)OC)(c3cc4c(cc3OC)N(C)[C@H]3[C@@](O)(C(=O)OC)[C@H](OC(C)=O)[C@]5(CC)C=CCN6CC[C@]43[C@@H]65)C2)C1 [Compound 27]
- IC50 [1, 4]: 7.1 nM
- IC50 [2]: 7.3 nM
- IC50 [3]: 610 nM

SMILES: CCC1(NC(=O)Nc2ccc(OC)cc2)CC2CN(CCc3c([nH]c4ccccc34)C(C(=O)OC)(c3cc4c(cc3OC)N(C)C3C(O)(C(=O)OC)C(OC(C)=O)C5(CC)C=CCN6CCC43C65)C2)C1 (stereo not drawn) [Compound 28]
- IC50 [1, 4]: 2 nM
- IC50 [2]: 4.9 nM
- IC50 [3]: 230 nM

SMILES: CC[C@]1(NC(=O)Nc2cccc(OC)c2)C[C@@H]2CN(CCc3c([nH]c4ccccc34)[C@@](C(=O)OC)(c3cc4c(cc3OC)N(C)[C@H]3[C@@](O)(C(=O)OC)[C@H](OC(C)=O)[C@]5(CC)C=CCN6CC[C@]43[C@@H]65)C2)C1 [Compound 29]
- fold more potent than vinblastine, HCT116 [1]: ~10 fold
- IC50 [1, 5]: 0.77 nM
- IC50 [2]: 5.4 nM
- IC50 [3]: 80 nM
- fold improvement over vinblastine, HCT116/VM46 [3]: 10 fold

SMILES: CC[C@]1(NC(=S)NC2CCCCC2)C[C@@H]2CN(CCc3c([nH]c4ccccc34)[C@@](C(=O)OC)(c3cc4c(cc3OC)N(C)[C@H]3[C@@](O)(C(=O)OC)[C@H](OC(C)=O)[C@]5(CC)C=CCN6CC[C@]43[C@@H]65)C2)C1 [Compound 36]
- IC50 [1, 4]: 20 nM
- IC50 [3]: 520 nM

SMILES: CCC1(NC(=S)Nc2ccccc2)CC2CN(CCc3c([nH]c4ccccc34)C(C(=O)OC)(c3cc4c(cc3OC)N(C)C3C(O)(C(=O)OC)C(OC(C)=O)C5(CC)C=CCN6CCC43C65)C2)C1 (stereo not drawn) [Compound 37]
- IC50 [1, 4]: 40 nM
- IC50 [3]: 650 nM

SMILES: CC[C@]1(NC(=S)NCCc2ccc(F)cc2)C[C@@H]2CN(CCc3c([nH]c4ccccc34)[C@@](C(=O)OC)(c3cc4c(cc3OC)N(C)[C@H]3[C@@](O)(C(=O)OC)[C@H](OC(C)=O)[C@]5(CC)C=CCN6CC[C@]43[C@@H]65)C2)C1 [Compound 38]
- IC50 [1, 4]: 60 nM
- IC50 [3]: 750 nM

SMILES: CCN(CC)C(=O)N[C@@]1(CC)C[C@@H]2CN(CCc3c([nH]c4ccccc34)[C@@](C(=O)OC)(c3cc4c(cc3OC)N(C)[C@H]3[C@@](O)(C(=O)OC)[C@H](OC(C)=O)[C@]5(CC)C=CCN6CC[C@]43[C@@H]65)C2)C1 [Compound 40]
- IC50 [1, 4]: 6.7 nM
- IC50 [3]: 450 nM

SMILES: CCC1(NC(=S)N(C)C)CC2CN(CCc3c([nH]c4ccccc34)C(C(=O)OC)(c3cc4c(cc3OC)N(C)C3C(O)(C(=O)OC)C(OC(C)=O)C5(CC)C=CCN6CCC43C65)C2)C1 (stereo not drawn) [Compound 43]
- IC50 [1, 4]: 8.7 nM
- activity difference between sensitive HCT116 and vinblastine-resistant HCT116/VM46 ([3]; HCT116/VM46 vs HCT116): 10 fold
- IC50 [3]: 250 nM

SMILES: CCC1(OC(=O)N(C)C)CC2CN(CCc3c([nH]c4ccccc34)C(C(=O)OC)(c3cc4c(cc3OC)N(C)C3C(O)(C(=O)OC)C(OC(C)=O)C5(CC)C=CCN6CCC43C65)C2)C1 (stereo not drawn) [Compound 44]
- fold less active than N,N-dimethyl urea or thiourea 39 and 43 ([1]; HCT116): > 1000 fold
- IC50 [1, 4]: 4700 nM
- IC50 [3]: 9100 nM

SMILES: CC[C@]1(NC)C[C@@H]2CN(CCc3c([nH]c4ccccc34)[C@@](C(=O)OC)(c3cc4c(cc3OC)N(C)[C@H]3[C@@](O)(C(=O)OC)[C@H](OC(C)=O)[C@]5(CC)C=CCN6CC[C@]43[C@@H]65)C2)C1 [Compound 45, 20′-(methylamino)vinblastine]
- IC50 [1, 4]: 60 nM
- IC50 [3]: 8500 nM

SMILES: CC[C@]12C=CCN3CC[C@@]4(c5cc([C@@]6(C(=O)OC)C[C@H]7CN(CCc8c6[nH]c6ccccc86)C[C@@](CC)(N(C)C)C7)c(OC)cc5N(C)[C@H]4[C@@](O)(C(=O)OC)[C@@H]1OC(C)=O)[C@@H]32 [Compound 46]
- IC50 [1, 4]: 980 nM
- IC50 [3]: > 10000 nM

SMILES: CCNC(=O)N(C)[C@@]1(CC)C[C@@H]2CN(CCc3c([nH]c4ccccc34)[C@@](C(=O)OC)(c3cc4c(cc3OC)N(C)[C@H]3[C@@](O)(C(=O)OC)[C@H](OC(C)=O)[C@]5(CC)C=CCN6CC[C@]43[C@@H]65)C2)C1 [Compound 47]
- fold decrease in activity between 15 and 47 ([1]; HCT116): 700 fold
- IC50 [1, 4]: 520 nM
- IC50 [3]: 8500 nM

SMILES: CCNC(=O)NC1(CC)CC2CN(CCc3c([nH]c4ccc(F)cc34)C(C(=O)OC)(c3cc4c(cc3OC)N(C)C3C(O)(C(=O)OC)C(OC(C)=O)C5(CC)C=CCN6CCC43C65)C2)C1 (stereo not drawn) [Compound 49]
- fold more potent than vinblastine, HCT116 [1]: at least 10 fold
- IC50 [1, 5]: 0.62 nM
- IC50 [3]: 70 nM
- fold improvement over vinblastine, HCT116/VM46 [3]: ~10 fold
